According to paper PMC8774285, “In Silico, In Vitro and In Vivo Analysis of Tanshinone IIA and Cryptotanshinone from Salvia miltiorrhiza as Modulators of Cyclooxygenase-2/mPGES-1/Endothelial Prostaglandin EP3 Pathway” (Biomolecules, 2022):

Assays:
Assay type in all cases: biochemical
cyclooxygenase-2 (COX-2) = molecular target: T1, cyclooxygenase-2 (COX-2) (Homo sapiens, UniProt P35354); test: isolated COX-2 activity assay ([…] AA, 12-HHT formation); […] residual activity at […]
T1 construct: gene PTGS2; recombinant human COX-2
T1 sequence (P35354 18-604): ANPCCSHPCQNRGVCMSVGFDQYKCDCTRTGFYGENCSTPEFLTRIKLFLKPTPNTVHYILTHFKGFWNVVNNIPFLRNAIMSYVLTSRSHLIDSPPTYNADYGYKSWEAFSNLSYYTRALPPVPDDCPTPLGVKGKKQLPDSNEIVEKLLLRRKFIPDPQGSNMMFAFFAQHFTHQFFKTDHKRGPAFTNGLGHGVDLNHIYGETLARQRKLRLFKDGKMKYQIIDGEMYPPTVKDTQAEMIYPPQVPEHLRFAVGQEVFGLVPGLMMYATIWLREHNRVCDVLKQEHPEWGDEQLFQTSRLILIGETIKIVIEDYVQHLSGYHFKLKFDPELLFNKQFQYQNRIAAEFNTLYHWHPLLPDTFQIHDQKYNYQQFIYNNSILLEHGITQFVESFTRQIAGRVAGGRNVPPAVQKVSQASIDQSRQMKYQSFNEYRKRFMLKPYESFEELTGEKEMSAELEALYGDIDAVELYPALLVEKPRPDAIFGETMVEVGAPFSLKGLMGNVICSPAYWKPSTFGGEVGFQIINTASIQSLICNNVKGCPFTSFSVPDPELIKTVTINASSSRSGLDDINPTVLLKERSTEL

5-lipoxygenase (5-LO) = molecular target: T2, 5-lipoxygenase (5-LO) (Homo sapiens, UniProt P09917); test: isolated 5-LO activity assay ([…] AA, products by RP-HPLC)
T2 construct: gene ALOX5; recombinant, expressed in E. coli BL21 (DE3) with pT3-5-LO, purified on ATP-agarose
T2 sequence (P09917 1-674): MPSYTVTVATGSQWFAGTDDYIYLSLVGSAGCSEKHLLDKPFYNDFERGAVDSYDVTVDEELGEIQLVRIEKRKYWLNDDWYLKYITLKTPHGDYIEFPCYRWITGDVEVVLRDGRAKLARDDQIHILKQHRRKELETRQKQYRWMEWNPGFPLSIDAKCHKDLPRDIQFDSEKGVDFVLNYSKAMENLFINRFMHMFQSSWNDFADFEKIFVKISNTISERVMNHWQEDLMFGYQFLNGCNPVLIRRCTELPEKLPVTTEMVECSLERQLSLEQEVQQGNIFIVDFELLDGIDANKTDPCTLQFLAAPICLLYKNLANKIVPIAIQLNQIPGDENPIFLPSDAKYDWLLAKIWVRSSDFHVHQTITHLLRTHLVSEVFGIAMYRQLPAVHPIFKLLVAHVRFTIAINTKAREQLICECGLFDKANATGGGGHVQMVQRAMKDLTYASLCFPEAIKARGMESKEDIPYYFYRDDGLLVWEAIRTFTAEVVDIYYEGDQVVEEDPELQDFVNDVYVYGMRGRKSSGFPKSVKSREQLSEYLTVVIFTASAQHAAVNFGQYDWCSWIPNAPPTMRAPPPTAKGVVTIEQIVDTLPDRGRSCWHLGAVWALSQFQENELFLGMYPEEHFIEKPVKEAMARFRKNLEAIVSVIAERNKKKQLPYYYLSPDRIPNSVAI

cyclooxygenase-1 (COX-1) = molecular target: T3, cyclooxygenase-1 (COX-1) (Ovis aries, UniProt P05979); test: isolated COX-1 activity assay ([…] AA, 12-HHT formation); […] residual activity at […]
T3 construct: gene PTGS1; purified ovine COX-1
T3 sequence (P05979 25-600): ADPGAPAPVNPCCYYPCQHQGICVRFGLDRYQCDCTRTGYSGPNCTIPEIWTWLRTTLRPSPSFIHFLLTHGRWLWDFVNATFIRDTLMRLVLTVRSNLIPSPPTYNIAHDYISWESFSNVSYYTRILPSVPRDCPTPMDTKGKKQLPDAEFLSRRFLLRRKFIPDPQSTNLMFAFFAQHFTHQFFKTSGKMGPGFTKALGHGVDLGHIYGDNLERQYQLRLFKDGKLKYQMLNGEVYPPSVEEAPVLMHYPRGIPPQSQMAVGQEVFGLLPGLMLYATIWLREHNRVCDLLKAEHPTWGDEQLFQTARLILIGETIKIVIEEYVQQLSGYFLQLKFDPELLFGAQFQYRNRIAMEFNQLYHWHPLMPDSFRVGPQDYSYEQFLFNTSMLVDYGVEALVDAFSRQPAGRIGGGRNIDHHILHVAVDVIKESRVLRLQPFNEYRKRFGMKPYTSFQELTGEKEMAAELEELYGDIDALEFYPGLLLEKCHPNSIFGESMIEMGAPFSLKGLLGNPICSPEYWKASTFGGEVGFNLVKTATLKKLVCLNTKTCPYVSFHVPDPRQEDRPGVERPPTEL

C[C@H]1COC2=C1C(=O)C(=O)c1c2ccc2c1CCCC2(C)C [CRY, cryptotanshinone]
IC50 (cyclooxygenase-2 (COX-2)): > 30 µM | IC50 (5-lipoxygenase (5-LO)): 7.1 µM | IC50 (cyclooxygenase-1 (COX-1)): > 30 µM
